Measurements: patent publication US5492924A, “Phorbine derivatives and their use in the diagnosis and therapy of cancer” (Fox Chase Cancer Center, priority 1993, dated 1996)

Assays:
EMT-6 tumor cells = assay: Plating efficiency (colony forming assay) of EMT-6 tumor cells from tumors treated in vivo by PDT; design: species or system C.B17/Icr scid mice; conditions: for Plating efficiency, excision at 24 hr / Plating efficiency, immediate excision: 300J of 670 nm light
Description: (§1) Photosensitizer efficacy was measured with two different tumor models. Solid EMT-6 tumors (~0.1 cm^3) growing on the backs of C.B17/Icr scid mice were exposed to 300J of 670 nm light one hour after the iv administration of Ph4-OH. Light was generated by a laser, transported to the tumor-bearing mouse via an optical fiber and focused onto the tumor surface through a diffusing lens. The light dose rate at the tumor surface was 200-400 mW/cm^2 and the field size encompassed the tumor cross section. […] EMT-6 tumor response was quantified by two different assays. At various times after PDT treatment, animals were sacrified, tumors were removed in toto from the animal and mechanically disrupted. Tumor cells were released by an enzyme digestion procedure. Released tumor cells were plated into Petri dishes for colony forming assays.
IN VITRO PLATING EFFICIENCIES OF EMT-6
TUMOR CELLS FROM TUMORS TREATED IN VIVO
BY PDT WITH 300J OF 670 NM LIGHT

EMT-6 tumors = assay: EMT-6 tumor regrowth assay after PDT; assay type: in vivo, C.B17/Icr scid mice; conditions: for Regrowth time (time to grow to two times the treatment volume): 300J of 670 nm one hr after administration
Description: as §1
Tumor response to PDT was also quantified by tumor regrowth assay. The volumes of both untreated and PDT-treated tumors in animals were estimated from caliper measurements made three times a week. Tumor response in vivo was characterized by acute inflammatory reaction observed on days 1 and 2 after treatment followed by tumor volume shrinkage and eventual cure or regrowth. These responses from individual tumors were quantified in days after treatment required for tumors to reach two times their treatment volume. […] Tumor response is a function of photosensitizer dosage. […] In this assay, some tumor cures are consistently observed when growth delay times are 15 days and greater.
TIME FOR EMT-6 TUMORS TO GROW TO TWO
TIMES THE TREATMENT VOLUME AFTER 300J
OF 670 NM DELIVERED ONE HR AFTER I.V.
PHOTOSENSITIZER ADMINISTRATION

[1] = test system: Dunning prostate carcinomas (R3327-AT); assay: Tumor response and cure of Dunning prostate carcinomas after PDT; assay type: in vivo, Fischer X Copenhagen rats
Text: Tumor response and cure was also investigated with 4-5 cm^3 Dunning prostate carcinomas (R3327-AT) growing in Fischer X Copenhagen rats. These tumors were illuminated by laser light delivered by a laterally-diffusing optical fiber applicator which contained seven fibers in an hexagonal array of equilateral triangles with 0.9 cm spacing.

EMT-6 mouse tumor cells [2] = assay: Photosensitizing effectiveness with EMT-6 tumor cells in vitro (photoinactivation); assay type: cell-based; conditions: for Photoinactivation rate (1/D50): 670 nm (pheophorbide) or 750 nm (bacteriopheophorbide), one hour exposure
Description: EMT-6 mouse tumor cells were exposed in slowly-stirred suspension cultures to various concentrations of Ph6-OH, Ph4-OH and BPh4-OH for one hour prior to illumination with graded light doses of specific wavelength. The pheophorbide and bacteriopheophorbide compounds were illuminated with 670 and 750 nm light, respectively. Illuminated cell populations were plated into Petri dishes containing appropriate media for colony forming assays. The surviving fraction (SF) of cells after various PDT treatments was computed from the ratio, [plating efficiency (treated cells)]/[plating efficiency (control cells)]. For each photosensitizer dosage investigated,survival curves of log SF versus light dose were constructed and analyzed. The light dose required to kill 50%, 90% and 99% of tumor cell populations (D50, D10 and D01) were determined. The reciprocal of light dose required to kill 50% of a tumor cell population (1/D50) was used as a photoinactivation rate for each concentration and as a basis for comparison of photosensitizer efficacy. Inactivation rates for the various photosensitizing agents activated with 630 (Photofrin® ), 670 (Ph6-OH) and 750 (BPh4-OH) nm light are shown in the accompanying Figure. Rates of photoinactivation and relative effectiveness of the pheophorbide and bacteriopheophorbide compounds compared to Photofrin®are given in Table C. The inactivation rate for Photofrin® was extrapolated from data generated at much higher drug concentrations utilizing the same experimental protocol. The relative effectiveness of Ph4-OH and BPh4-OH are approximately 800X and approximately 1150X, respectively.
For each concentration of photosensitizer compound studied, there was a threshold dose of light below which little or no cell killing occurred. […] For example, for PH6-OH at 0.1, 0.3 and 0.5 μM, the threshold light dose was 0.75, 0.18 and 0.08J/cm^2, respectively.

EMT-6 mouse tumor cells [3] = assay: Photosensitizer drug uptake into EMT-6 tumor cells; assay type: cell-based; conditions: for Initial binding rate: EMT-6
Description: (§2) EMT-6 mouse tumor and UNA mouse endothelial cells were exposed to various concentrations of the photosensitizer compounds of the invention in slowly-stirred suspension cultures. […] Cells were lysed and solubilized by mixing 1 mL of cell suspension with 1 mL 4% Triton X-100. After 2 hours of extraction, samples were mixed with 2 mL 95% EtOH and photosensitizer levels quantified by spectrofluorometry using Eex =400 nm and Eem =670 nm. […] For both cell lines, uptake is dependent upon photosensitizer concentration in the media and the larger volume tumor cells show the higher rates of uptake. If drug uptake rate is normalized to a standard cell volume, EMT-6 tumor cells bind the photosensitizer at 1.25 times that of UNA endothelial cells.

[4] = test system: UNA mouse endothelial cells; assay: Photosensitizer drug uptake into UNA endothelial cells; assay type: cell-based
Description: as §2

[5] = .3 μM, compared to Photofrin (= 1)

C=Cc1c(C)c2cc3nc(c4c5[nH]c(cc6nc(cc1[nH]2)C(C)=C6CC)c(C)c5C(=O)C4C(=O)OC)C(CCC(=O)NCCCCO)C3C (stereo not shown) [Ph4-OH, 9-Ethenyl-14-ethyl-21-(methoxycarbonyl)-4,8,13,18-tetramethyl-20-oxo-N-(4-hydroxybutyl)-3-phorbinepropanamide]
Plating efficiency, excision at 24 hr (EMT-6 tumor cells; 1 mg/kg iv): 0.001 ± 0.001 | Plating efficiency, immediate excision (EMT-6 tumor cells; 1 mg/kg iv): 0.55 ± 0.07 | Plating efficiency, excision at 24 hr (EMT-6 tumor cells; 2 mg/kg iv): ≤ 0.0001 | Plating efficiency, immediate excision (EMT-6 tumor cells; 2 mg/kg iv): 0.48 ± 0.09 | Tumor cell plating efficiency when tumors excised 24 hr after PDT (EMT-6 tumor cells; 24 hr after PDT, in words): decreased dramatically in proportion to photosensitizer concentration and light dose | Tumor cell killing when tumors excised immediately after PDT (EMT-6 tumor cells; immediately after PDT, in words): little or no killing observed | Potency relative to Photofrin for producing same extent of tumor cell kill in vivo (EMT-6 tumor cells; relative to Photofrin, photosensitizer and light doses): at least fifty times more potent | Regrowth time (time to grow to two times the treatment volume) (EMT-6 tumors; 0.45 mg/kg i.v.): 4.3 ± 0.4 days | Regrowth time (time to grow to two times the treatment volume) (EMT-6 tumors; 0.75 mg/kg i.v.): 8.6 ± 0.5 days | Regrowth time (time to grow to two times the treatment volume) (EMT-6 tumors; 1.00 mg/kg i.v.): 12.4 ± 0.6 days | Regrowth time (time to grow to two times the treatment volume) (EMT-6 tumors; 1.50 mg/kg i.v.): > 22.0 days | Tumor response (compared with Ph6-OH) (EMT-6 tumors; 300J of 670 nm light, in words): superior tumor response | Potency relative to Photofrin for equal tumor growth delay (EMT-6 tumors; relative to Photofrin, photosensitizer dosage and light dose): at least fifty times more potent | Tumor necrosis and response ([1]; 2 mg/kg iv, 400J of 670 nm light one hour after administration, 4-5 cm^3 tumors): Complete tumor necrosis and response | Potency relative to Photofrin for inducing tumor necrosis and cure ([1]; relative to Photofrin): at least eighty times more potent | Photoinactivation rate (1/D50) (EMT-6 mouse tumor cells [2]; .3 μM): 7.30 (J/cm^2)^-1 | Relative effectiveness (EMT-6 mouse tumor cells [2]; [5]): 811 | Relative effectiveness (EMT-6 mouse tumor cells [2]; compared to Photofrin): approximately 800 X | Initial binding rate (EMT-6 mouse tumor cells [3]; 0.5 μM): 0.097 μg/10^6 cells/hr | Initial binding rate (EMT-6 mouse tumor cells [3]; 1.0 μM): 0.068 μg/10^6 cells/hr | Uptake rate normalized to standard cell volume, EMT-6 tumor cells relative to UNA endothelial cells (EMT-6 mouse tumor cells [3]; ratio EMT-6/UNA): 1.25 times | Initial binding rate ([4]; 0.5 μM): 0.067 μg/10^6 cells/hr | Initial binding rate ([4]; 1.0 μM): 0.038 μg/10^6 cells/hr

CCC1c2cc3[nH]c4c(c3C)C(=O)C(C(=O)OC)c4c3nc(cc4[nH]c(cc(n2)C1C)c(C(C)=O)c4C)C(C)C3CCC(=O)NCCCCO (stereo not shown) [BPh4-OH, 9-Acetyl-14-ethyl-13,14-dihydro-21-(methoxycarbonyl)-4,8,13,18-tetramethyl-20-oxo-N-(4-hydroxybutyl)-3-phorbinepropanamide]
Photoinactivation rate (1/D50) (EMT-6 mouse tumor cells [2]; .3 μM): 10.4 (J/cm^2)^-1 | Relative effectiveness (EMT-6 mouse tumor cells [2]; [5]): 1156 | Relative effectiveness (EMT-6 mouse tumor cells [2]; compared to Photofrin): approximately 1150 X

C=Cc1c(C)c2cc3nc(c4c5[nH]c(cc6nc(cc1[nH]2)C(C)=C6CC)c(C)c5C(=O)C4C(=O)OC)C(CCC(=O)NCCCCCCO)C3C (stereo not shown) [Ph6-OH, 9-Ethenyl-14-ethyl-21-(methoxycarbonyl)-4,8,13,18-tetramethyl-20-oxo-N-(6-hydroxyhexyl)-3-phorbinepropanamide]
Regrowth time (time to grow to two times the treatment volume) (EMT-6 tumors; 0.60 mg/kg i.v.): 4.7 ± 0.7 days | Regrowth time (time to grow to two times the treatment volume) (EMT-6 tumors; 1.00 mg/kg i.v.): 7.9 ± 1.3 days | Regrowth time (time to grow to two times the treatment volume) (EMT-6 tumors; 3.00 mg/kg i.v.): 25.5 ± 2.9 days | Threshold light dose below which little or no cell killing occurred (EMT-6 mouse tumor cells [2]; 0.1 μM): 0.75 J/cm^2 | Threshold light dose below which little or no cell killing occurred (EMT-6 mouse tumor cells [2]; 0.3 μM): 0.18 J/cm^2 | Threshold light dose below which little or no cell killing occurred (EMT-6 mouse tumor cells [2]; 0.5 μM): 0.08 J/cm^2 | Photoinactivation rate (1/D50) (EMT-6 mouse tumor cells [2]; .3 μM): 5.10 (J/cm^2)^-1 | Relative effectiveness (EMT-6 mouse tumor cells [2]; [5]): 567
